IC50 and Ki data for 22 molecules are collected here from patent publication US20130217702A1 (Richter Gedeon Nyrt., priority 2010, published 2013).

Experiment [1] addresses T1, recombinant human B1 receptors (Homo sapiens, UniProt P46663).
T1 construct: host or cells: CHO (CHO-B1)
T1 sequence (P46663 1-353): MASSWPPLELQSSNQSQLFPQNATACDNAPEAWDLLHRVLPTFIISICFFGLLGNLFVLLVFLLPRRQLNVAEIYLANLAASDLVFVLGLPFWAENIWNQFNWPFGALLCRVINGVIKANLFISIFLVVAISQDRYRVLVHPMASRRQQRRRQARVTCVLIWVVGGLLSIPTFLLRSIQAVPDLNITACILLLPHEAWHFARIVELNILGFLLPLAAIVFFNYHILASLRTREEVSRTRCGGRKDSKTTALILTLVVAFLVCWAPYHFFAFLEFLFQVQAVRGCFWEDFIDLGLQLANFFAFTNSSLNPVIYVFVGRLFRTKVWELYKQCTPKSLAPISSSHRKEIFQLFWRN
Put plainly: Functional assay: antagonist potency by cytosolic calcium measurement (plate reader fluorimeter) in CHO-B1 cells, agonist LysDABK. It counts as cell-based. Conditions: CHO-B1 cells, inhibition of LysDABK (EC80)-evoked [Ca2+]i elevation; read-out: B1 func. Summed up: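 IC50 is the concentration giving half-maximal inhibition of the LysDABK (EC80) calcium response, fitted from at least three experiments. CHO cells stably expressing human B1 were dye-loaded, exposed to compound for 20-25 min, then read by fluo-4 fluorescence (ΔF/F) at 37 °C.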

The target in experiment [2] is T2, human recombinant bradykinin B1 receptor (Homo sapiens, UniProt P46663).
T2 construct: host or cells: CHO cells, clone hB1-A5
T2 sequence (P46663 1-353): T1 sequence (P46663 1-353)
Kind of experiment: Human recombinant bradykinin B1 receptor competitive radioligand binding. Conditions: hB1 expressed in CHO cells, [3H]-[Des-Arg10] Kallidin radioligand; read-out: B1 binding. Summed up:
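Membranes from CHO cells expressing hB1 (20 μg protein/tube) incubated 15 min at 25° C. with [3,4-prolyl-3,4-^3H(N)]-[Des-Arg^10] Kallidin; nonspecific binding defined with 10 μM Lys-des-Arg^9-Bradykinin. Bound label collected by filtration and counted. IC50 from ≥7-point curves in triplicate; Ki by Cheng-Prusoff.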

Structures are written as SMILES.

For `COc1cc(C(=O)NC2(C(=O)NCc3ccc(-n4c(C#N)cc5cc(F)ccc54)cc3)CC2)on1` [Example 49, 3-Methoxy-isoxazole-5-carboxylic acid {1-[4-(2-cyano-5-fluoro-indol-1-yl)-benzylcarbamoyl]-cyclopropyl}-amide], the IC50 in experiment [1] was less than 20 nM. Moreover, the Ki in experiment [2] is less than 20 nM.
As for `COc1ccc2c(c1)c(Cl)c(-c1nc(C)no1)n2-c1ccc(CNC(=O)C2(NC(=O)c3cncc(C(F)(F)F)c3)CC2)cc1` [Example 50, N-(1-{4-[3-Chloro-5-methoxy-2-(3-methyl-[1,2,4]oxadiazol-5-yl)-indol-1-yl]-benzyl-carbamoyl}-cyclopropyl)-5-trifluoromethyl-nicotinamide], the IC50 in experiment [1] was less than 20 nM. Also, in experiment [2], the Ki was less than 20 nM.
Regarding `COc1ccc2c(c1)c(Cl)c(-c1nc(C)no1)n2-c1ccc(CNC(=O)C2(NC(=O)c3cc(OC)no3)CC2)cc1` [Example 51, 3-Methoxy-isoxazole-5-carboxylic acid (1-{4-[3-chloro-5-methoxy-2-(3-methyl-[1,2,4]oxadiazol-5-yl)-indol-1-yl]-benzylcarbamoyl}-cyclopropyl)-amide], the IC50 in experiment [1] was less than 20 nM. Besides, the Ki in experiment [2] is less than 20 nM.
For the molecule `COc1ccc2c(c1)c(Cl)c(C#N)n2-c1ccc(CNC(=O)C2(NC(=O)c3cc(OC)no3)CC2)cc1` [Example 52, 3-Methoxy-isoxazole-5-carboxylic acid {1-[4-(3-chloro-2-cyano-5-methoxy-indol-1-yl)-benzylcarbamoyl]-cyclopropyl}-amide], in experiment [1], the IC50 was less than 20 nM. The Ki in experiment [2] was less than 20 nM.
For the molecule `COc1cc(C(=O)NC2(C(=O)NCc3ccc(-n4c(-c5noc(C)n5)cc5cc(Cl)ccc54)cc3)CC2)on1` [Example 53, 3-Methoxy-isoxazole-5-carboxylic acid (1-{4-[5-chloro-2-(5-methyl-[1,2,4]oxadiazol-3-yl)-indol-1-yl]-benzylcarbamoyl}-cyclopropyl)-amide], the IC50 in experiment [1] was less than 20 nM. For the same molecule, in experiment [2], the Ki was less than 20 nM.
For the molecule `COC(=O)c1c(Cl)c2ccccc2n1-c1ccc(CNC(=O)C2(NC(=O)C(F)(F)F)CC2)c(F)c1` [Example 54, 3-Chloro-1-[3-fluoro-4-({[1-(2,2,2-trifluoro-acetylamino)-cyclopropanecarbonyl]-amino}-methyl)-phenyl]-1H-indole-2-carboxylic acid methyl ester], the IC50 in experiment [1] was less than 20 nM. Further, the Ki in experiment [2] was less than 20 nM.
Take `COC(=O)c1c(Cl)c2ccccc2n1-c1ccc(CNC(=O)C2(NC(=O)c3cc(OC)no3)CC2)c(F)c1` [Example 55, 3-Chloro-1-{3-fluoro-4-[({1-[(3-methoxy-isoxazole-5-carbonyl)-amino]-cyclo-propanecarbonyl}-amino)-methyl]-phenyl}-1H-indole-2-carboxylic acid methyl ester]: in experiment [1], the IC50 is less than 20 nM. Further, in experiment [2], the Ki was less than 20 nM.
Take `COc1cc(C(=O)NC2(C(=O)NCc3ccc(-n4c(-c5nc(C)no5)cc5ccccc54)cn3)CC2)on1` [Example 56, 3-Methoxy-isoxazole-5-carboxylic acid [1-({5-[2-(3-methyl-[1,2,4]oxadiazol-5-yl)-indol-1-yl]-pyridin-2-ylmethyl}-carbamoyl)-cyclopropyl]-amide]: the IC50 in experiment [1] lay within 100 to 500 nM. The Ki in experiment [2] was 100 to 500 nM.
With `COc1cc(C(=O)NC2(C(=O)NCc3ccc(-n4c(-c5noc(C)n5)cc5ccccc54)cn3)CC2)on1` [Example 57, 3-Methoxy-isoxazole-5-carboxylic acid [1-({5-[2-(5-methyl-[1,2,4]oxadiazol-3-yl)-indol-1-yl]-pyridin-2-ylmethyl}-carbamoyl)-cyclopropyl]-amide], in experiment [1], the IC50 fell in the range of 20 to 100 nM. The Ki in experiment [2] was 20 to 100 nM.
Take `COc1cc(C(=O)NC2(C(=O)NCc3ccc(-n4c(-c5nc(C)no5)c(Cl)c5ccccc54)cn3)CC2)on1` [Example 58, 3-Methoxy-isoxazole-5-carboxylic acid [1-({5-[3-chloro-2-(3-methyl-[1,2,4]oxadiazol-5-yl)-indol-1-yl]-pyridin-2-ylmethyl}-carbamoyl)-cyclopropyl]-amide]: the IC50 in experiment [1] was less than 20 nM. In experiment [2], the Ki was less than 20 nM.
`COc1cc(C(=O)NC2(C(=O)NCc3ccc(-n4c(-c5nnn(C)n5)c(Cl)c5cc(F)ccc54)cn3)CC2)on1` [Example 59, 3-Methoxy-isoxazole-5-carboxylic acid [1-({5-[3-chloro-5-fluoro-2-(2-methyl-2H-tetrazol-5-yl)-indol-1-yl]-pyridin-2-ylmethyl}-carbamoyl)-cyclopropyl]-amide]: the IC50 in experiment [1] is less than 20 nM. The Ki in experiment [2] is less than 20 nM.
Turning to `COc1cc(C(=O)NC2(C(=O)NCc3ccc(-n4c(-c5nnn(C)n5)c(Cl)c5ccccc54)cn3)CC2)on1` [Example 60], the IC50 in experiment [1] was less than 20 nM. The Ki in experiment [2] was less than 20 nM.
Regarding `COc1cc(C(=O)NC2(C(=O)NCc3ccc(-n4c(-c5noc(C)n5)cc5cc(F)ccc54)cn3)CC2)on1` [Example 61, 3-Methoxy-isoxazole-5-carboxylic acid [1-({5-[5-fluoro-2-(5-methyl-[1,2,4]oxadiazol-3-yl)-indol-1-yl]-pyridin-2-ylmethyl}-carbamoyl)-cyclopropyl]-amide], in experiment [1], the IC50 is less than 20 nM. Besides, in experiment [2], the Ki is less than 20 nM.
`COc1cc(C(=O)NC2(C(=O)NCc3ccc(-n4c(-c5noc(C)n5)c(Cl)c5cc(F)ccc54)cn3)CC2)on1` [Example 62, 3-Methoxy-isoxazole-5-carboxylic acid [1-({5-[3-chloro-5-fluoro-2-(5-methyl-[1,2,4]oxadiazol-3-yl)-indol-1-yl]-pyridin-2-ylmethyl}-carbamoyl)-cyclopropyl]-amide]: the IC50 in experiment [1] is less than 20 nM. Besides, the Ki in experiment [2] is less than 20 nM.
Consider `COc1ccc2c(c1)c(Cl)c(-c1noc(C)n1)n2-c1ccc(CNC(=O)C2(NC(=O)C(F)(F)F)CC2)cc1` [Example 63, 1-(2,2,2-Trifluoro-acetylamino)-cyclopropanecarboxylic acid 4-[3-chloro-5-methoxy-2-(5-methyl-[1,2,4]oxadiazol-3-yl)-indol-1-yl]-benzylamide], for which the IC50 in experiment [1] was less than 20 nM. In addition, the Ki in experiment [2] is less than 20 nM.
Turning to `COc1ccc2c(c1)c(Cl)c(-c1noc(C)n1)n2-c1ccc(CNC(=O)C2(NC(=O)c3cc(OC)no3)CC2)cc1` [Example 64, 3-Methoxy-isoxazole-5-carboxylic acid (1-{4-[3-chloro-5-methoxy-2-(5-methyl-[1,2,4]oxadiazol-3-yl)-indol-1-yl]-benzylcarbamoyl}-cyclopropyl)-amide], the IC50 in experiment [1] was less than 20 nM. In addition, the Ki in experiment [2] is less than 20 nM.
`Cc1nc(-c2c(Cl)c3cc(Cl)ccc3n2-c2ccc(CNC(=O)C3(NC(=O)C(F)(F)F)CC3)cc2)no1` [Example 65, 1-(2,2,2-Trifluoro-acetylamino)-cyclopropanecarboxylic acid 4-[3,5-dichloro-2-(5-methyl-[1,2,4]oxadiazo 1-3-yl)-indol-1-yl]-benzylamide]: the IC50 in experiment [1] is less than 20 nM. For the same molecule, the Ki in experiment [2] is less than 20 nM.
Consider `COc1cc(C(=O)NC2(C(=O)NCc3ccc(-n4c(-c5noc(C)n5)c(Cl)c5cc(Cl)ccc54)cc3)CC2)on1` [Example 66, 3-Methoxy-isoxazole-5-carboxylic acid (1-{4-[3,5-dichloro-2-(5-methyl-[1,2,4]oxadiazol-3-yl)-indol-1-yl]-benzylcarbamoyl}-cyclopropyl)-amide], for which, in experiment [1], the IC50 is less than 20 nM. Further, the Ki in experiment [2] was less than 20 nM.
As to `COc1cc(C(=O)NC2(C(=O)NCc3ccc(-n4c(-c5noc(C)n5)c(Cl)c5cc(F)ccc54)cc3)CC2)on1` [Example 67, 3-Methoxy-isoxazole-5-carboxylic acid (1-{4-[3-chloro-5-fluoro-2-(5-methyl-[1,2,4]oxadiazol-3-yl)-indol-1-yl]-benzylcarbamoyl}-cyclopropyl)-amide], the IC50 in experiment [1] was less than 20 nM. In addition, in experiment [2], the Ki is less than 20 nM.
Take `COC(=O)c1c(Cl)c2c(F)cccc2n1-c1ccc(CNC(=O)C2(NC(=O)c3cc(OC)no3)CC2)cc1` [Example 68, 3-Chloro-4-fluoro-1-{4-[({1-[(3-methoxy-isoxazole-5-carbonyl)-amino]-cyclo-propanecarbonyl}-amino)-methyl]-phenyl}-1H-indole-2-carboxylic acid methyl ester]: the IC50 in experiment [1] is less than 20 nM. Besides, the Ki in experiment [2] was less than 20 nM.
Turning to `COC(=O)c1c(Cl)c2c(F)cccc2n1-c1ccc(CNC(=O)C2(NC(=O)C(F)(F)F)CC2)cc1` [Example 69, 3-Chloro-4-fluoro-1-[4-({[1-(2,2,2-trifluoro-acetylamino)-cyclopropanecarbonyl]-amino}-methyl)-phenyl]-1H-indole-2-carboxylic acid methyl ester], the IC50 in experiment [1] is 20 to 100 nM. Besides, the Ki in experiment [2] lay within 20 to 100 nM.
With `Cc1nc(-c2c(Cl)c3cc(Cl)ccc3n2-c2ccc(CNC(=O)C3(NC(=O)c4cccnc4Cl)CC3)cc2)no1` [Example 70, 2-Chloro-N-(1-{4-[3,5-dichloro-2-(5-methyl-[1,2,4]oxadiazol-3-yl)-indol-1-yl]-benzylcarbamoyl}-cyclopropyl)-nicotinamide], in experiment [1], the IC50 was less than 20 nM. Also, the Ki in experiment [2] is less than 20 nM.
